Test results reported in patent US11000033B2, “Ketone or oxime compound, and herbicide” (NISSAN CHEMICAL CORPORATION, priority 2014, dated 2021).

Columns and labels:
Format in all cases: in vivo
Scirpus juncoides = experiment: Test Example 1: herbicidal activity, application before weed generation in submerged conditions (symbol B); conditions: application herbicide amount 320 g/ha
How it was run: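 Compound emulsion was diluted to a set herbicide amount and applied to the water surface on the sowing day, into submerged (4 cm) alluvial-soil pots sown with mixed weed seeds and transplanted 2.5-leaf rice. Pots were held in a 25–30 °C greenhouse, and weeds were scored 0–5 by herbicidal ratio after 3 weeks.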

Leptochloa chinensis = experiment: Test Example 3: herbicidal effect by foliage application, Wagner pot (symbol D); conditions: application herbicide amount 320 g/ha
How it was run: (§1)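 Seeds sown in alluvial soil kept under 0.1–0.5 cm water, greenhouse 25–30 °C; 14 d growth. Leaves treated by small sprayer with water-diluted emulsion at a predetermined rate. Effect graded by set scale, 3 weeks.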

Cyperus difformis = experiment: Test Example 3: herbicidal effect by foliage application, Wagner pot (symbol E); conditions: application herbicide amount 320 g/ha
How it was run: as §1

Digitaria ciliaris = experiment: Test Example 4: herbicidal effect by soil treatment (symbol F)
How it was run: (§2)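 Seeds were sown in sterilized diluvial soil, covered with about 1.5 cm of soil, and the soil surface was sprayed with a water-diluted emulsion of the compound at a predetermined rate. Plants grew in a greenhouse at 25° C. to 30° C.; effects were scored visually 3 weeks after application.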

[1] = tested on: Echinochloa crus-galli var. crus-galli; experiment: Test Example 4: herbicidal effect by soil treatment (symbol H)
How it was run: as §2

Lolium multiflorum Lam. = experiment: Test Example 4: herbicidal effect by soil treatment (symbol K)
How it was run: as §2

Amaranthus retroflexus = experiment: Test Example 4: herbicidal effect by soil treatment (symbol N)
How it was run: as §2

rice = experiment: Test Example 4: effect on crop by soil treatment (symbol b)
How it was run: (§3)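 Seeds were sown in spots on sterilized diluvial soil in a plastic box and covered with about 1.5 cm of soil. Plants were then grown in a greenhouse at 25° C. to 30° C.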

beet = experiment: Test Example 4: effect on crop by soil treatment (symbol f)
How it was run: as §3

Setaria viridis = experiment: Test Example 5: herbicidal effect by foliage application, plastic box (symbol G); conditions: 320 g/ha, 3 weeks after application
How it was run: (§4)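 Visual herbicidal score, taken three weeks post-application, of seedlings sprayed on the foliage with water-diluted emulsion at a predetermined amount; plants were 14 days old, greenhouse-raised at 25° C. to 30° C.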

Alopecurus myosuroides = experiment: Test Example 5: herbicidal effect by foliage application, plastic box (symbol J); conditions: 320 g/ha, 3 weeks after application
How it was run: as §4

Abutilon theophrasti = experiment: Test Example 5: herbicidal effect by foliage application, plastic box (symbol M); conditions: 320 g/ha, 3 weeks after application
How it was run: as §4

Chenopodium album = experiment: Test Example 5: herbicidal effect by foliage application, plastic box (symbol O); conditions: 320 g/ha, 3 weeks after application
How it was run: as §4

Stellaria media = experiment: Test Example 5: herbicidal effect by foliage application, plastic box (symbol P); conditions: 320 g/ha, 3 weeks after application
How it was run: as §4

Galium spurium = experiment: Test Example 5: herbicidal effect by foliage application, plastic box (symbol Q); conditions: 320 g/ha, 3 weeks after application
How it was run: as §4

Veronica persica = experiment: Test Example 5: herbicidal effect by foliage application, plastic box (symbol R); conditions: 320 g/ha, 3 weeks after application
How it was run: as §4

soybean = experiment: Test Example 5: effect on crop by foliage application, plastic box (symbol d); conditions: 320 g/ha, 3 weeks after application
How it was run: (§5)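 A greenhouse held between 25° C. and 30° C. was used to grow plants sown spot-wise, beneath ~1.5 cm of soil, in boxes of sterilized diluvial soil.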

rice plant = experiment: Test Example 5: effect on crop by foliage application, plastic box (symbol b); conditions: 320 g/ha, 3 weeks after application
How it was run: as §5

[2] = application herbicide amount 320 g/ha

Row | Structure (SMILES) | Herbicidal effect grade, B: Scirpus juncoides (Scirpus juncoides) | herbicidal effect on D (Leptochloa chinensis), grade 0-5 (Leptochloa chinensis) | herbicidal effect on E, grade 0-5 (Cyperus difformis) | F: Digitaria ciliaris, herbicidal effect grade (Digitaria ciliaris; [2]) | H: Echinochloa crus-galli var. crus-galli, herbicidal effect grade [1, 2] | K: Lolium multiflorum Lam., herbicidal effect grade (Lolium multiflorum Lam.; [2]) | N: Amaranthus retroflexus, herbicidal effect grade (Amaranthus retroflexus; [2]) | b: directly sowed rice plant, effect on crop grade (rice; [2]) | f: beet, effect on crop grade (beet; [2]) | G: Setaria viridis, herbicidal effect grade (Setaria viridis) | J: Alopecurus myosuroides, herbicidal effect grade (Alopecurus myosuroides) | M: Abutilon theophrasti, herbicidal effect grade (Abutilon theophrasti) | O: Chenopodium album, herbicidal effect grade (Chenopodium album) | P: Stellaria media, herbicidal effect grade (Stellaria media) | Q: Galium spurium, herbicidal effect grade (Galium spurium) | R: Veronica persica, herbicidal effect grade (Veronica persica) | d: soybean, effect on crop grade (soybean) | b: directly sowed rice plant, effect on crop grade (rice plant) | also measured
1 | CON=C(C)CC1CC(O)=C(c2c(C)cc(-c3ccc(Cl)nc3)cc2C)C1=O (mixture of isomers) [6-035] | 4 (Herbicidal ratio of 70% or higher and lower than 90%) | 5 (Herbicidal ratio of 90% or more (almost completely withered)) | 5 (Herbicidal ratio of 90% or more (almost completely withered)) | 5 (Herbicidal ratio of 90% or more (almost completely withered)) | 5 (Herbicidal ratio of 90% or more (almost completely withered)) | 5 (Herbicidal ratio of 90% or more (almost completely withered)) | 0 (Herbicidal ratio of 5% or lower (almost no effect)) | 5 (Herbicidal ratio of 90% or more (almost completely withered)) | 0 (Herbicidal ratio of 5% or lower (almost no effect)) | 5 (Herbicidal ratio of 90% or more (almost completely withered)) | 5 (Herbicidal ratio of 90% or more (almost completely withered)) | 4 (Herbicidal ratio of 70% or higher and lower than 90%) | 3 (Herbicidal ratio of 40% or higher and lower than 70%) | 3 (Herbicidal ratio of 40% or higher and lower than 70%) | 4 (Herbicidal ratio of 70% or higher and lower than 90%) | 4 (Herbicidal ratio of 70% or higher and lower than 90%) | 2 (Herbicidal ratio of 20% or higher and lower than 40%) | 5 (Herbicidal ratio of 90% or more (almost completely withered)) | 
2 | CON=C(C)CC1CC(OC(=O)c2ccccc2)=C(c2c(C)cc(C)cc2C)C1=O (stereo not drawn) [1-010] | 5 (Herbicidal ratio of 90% or more (almost completely withered)) | 5 (Herbicidal ratio of 90% or more (almost completely withered)) | 5 (Herbicidal ratio of 90% or more (almost completely withered)) |  |  |  |  |  |  | 5 (Herbicidal ratio of 90% or more (almost completely withered)) | 5 (Herbicidal ratio of 90% or more (almost completely withered)) | 4 (Herbicidal ratio of 70% or higher and lower than 90%) | 4 (Herbicidal ratio of 70% or higher and lower than 90%) | 4 (Herbicidal ratio of 70% or higher and lower than 90%) | 4 (Herbicidal ratio of 70% or higher and lower than 90%) | 4 (Herbicidal ratio of 70% or higher and lower than 90%) | 4 (Herbicidal ratio of 70% or higher and lower than 90%) | 5 (Herbicidal ratio of 90% or more (almost completely withered)) | F (Digitaria ciliaris) herbicidal effect grade (Digitaria ciliaris; [2]): 5 (Herbicidal ratio of 90% or more (almost completely withered)); H (Echinochloa crus-galli var. crus-galli) herbicidal effect grade [1, 2]: 5 (Herbicidal ratio of 90% or more (almost completely withered)); K (Lolium multiflorum Lam.) herbicidal effect grade (Lolium multiflorum Lam.; [2]): 5 (Herbicidal ratio of 90% or more (almost completely withered)); N (Amaranthus retroflexus) herbicidal effect grade (Amaranthus retroflexus; [2]): 5 (Herbicidal ratio of 90% or more (almost completely withered)); b (directly sowed rice plant) effect on crop grade (rice; [2]): 5 (Herbicidal ratio of 90% or more (almost completely withered)); f (beet) effect on crop grade (beet; [2]): 4 (Herbicidal ratio of 70% or higher and lower than 90%)
3 | CC(=O)C(C(C)=O)C1CC(O)=C(c2c(C)cc(C)cc2C)C1=O (stereo not drawn) [2-002] | 0 (Herbicidal ratio of 5% or lower (almost no effect)) | 0 (Herbicidal ratio of 5% or lower (almost no effect)) | 0 (Herbicidal ratio of 5% or lower (almost no effect)) |  |  |  |  |  |  | 4 (Herbicidal ratio of 70% or higher and lower than 90%) | 4 (Herbicidal ratio of 70% or higher and lower than 90%) | 0 (Herbicidal ratio of 5% or lower (almost no effect)) | 3 (Herbicidal ratio of 40% or higher and lower than 70%) | 2 (Herbicidal ratio of 20% or higher and lower than 40%) | 2 (Herbicidal ratio of 20% or higher and lower than 40%) | 1 (Herbicidal ratio of 5% or higher and lower than 20%) | 0 (Herbicidal ratio of 5% or lower (almost no effect)) | 4 (Herbicidal ratio of 70% or higher and lower than 90%) | F: Digitaria ciliaris, herbicidal effect grade (Digitaria ciliaris; 320 g/ha): 0 (Herbicidal ratio of 5% or lower (almost no effect)); H: Echinochloa crus-galli var. crus-galli, herbicidal effect grade ([1]; 320 g/ha): 0 (Herbicidal ratio of 5% or lower (almost no effect)); K: Lolium multiflorum Lam., herbicidal effect grade (Lolium multiflorum Lam.; 320 g/ha): 0 (Herbicidal ratio of 5% or lower (almost no effect)); N: Amaranthus retroflexus, herbicidal effect grade (Amaranthus retroflexus; 320 g/ha): 0 (Herbicidal ratio of 5% or lower (almost no effect)); b: directly sowed rice plant, effect grade on crop (rice; 320 g/ha): 1 (Herbicidal ratio of 5% or higher and lower than 20%); f: beet, effect grade on crop (beet; 320 g/ha): 0 (Herbicidal ratio of 5% or lower (almost no effect))
4 | Cc1cc(C)c(C2=C(O)CC(CC(=O)CC3CC3)C2=O)c(C)c1 (stereo not drawn) [2-026] | 3 (Herbicidal ratio of 40% or higher and lower than 70%) | 4 (Herbicidal ratio of 70% or higher and lower than 90%) | 5 (Herbicidal ratio of 90% or more (almost completely withered)) | 5 (Herbicidal ratio of 90% or more (almost completely withered)) | 5 (Herbicidal ratio of 90% or more (almost completely withered)) | 5 (Herbicidal ratio of 90% or more (almost completely withered)) | 0 (Herbicidal ratio of 5% or lower (almost no effect)) | 5 (Herbicidal ratio of 90% or more (almost completely withered)) | 0 (Herbicidal ratio of 5% or lower (almost no effect)) | 5 (Herbicidal ratio of 90% or more (almost completely withered)) | 4 (Herbicidal ratio of 70% or higher and lower than 90%) | 0 (Herbicidal ratio of 5% or lower (almost no effect)) | 0 (Herbicidal ratio of 5% or lower (almost no effect)) | 0 (Herbicidal ratio of 5% or lower (almost no effect)) | 0 (Herbicidal ratio of 5% or lower (almost no effect)) | 0 (Herbicidal ratio of 5% or lower (almost no effect)) | 0 (Herbicidal ratio of 5% or lower (almost no effect)) | 5 (Herbicidal ratio of 90% or more (almost completely withered)) | 
